# Results as given in US20200385370A1 (SYNBLIA THERAPEUTICS, INC., priority 2017, published 2020).
# pIC50: −log10 of the molar value.
# Target: T1, GST tagged IRAK4 (Homo sapiens, UniProt Q9NWZ3)
# T1 construct: purchased SignalChem
# T1 sequence (Q9NWZ3 1-460): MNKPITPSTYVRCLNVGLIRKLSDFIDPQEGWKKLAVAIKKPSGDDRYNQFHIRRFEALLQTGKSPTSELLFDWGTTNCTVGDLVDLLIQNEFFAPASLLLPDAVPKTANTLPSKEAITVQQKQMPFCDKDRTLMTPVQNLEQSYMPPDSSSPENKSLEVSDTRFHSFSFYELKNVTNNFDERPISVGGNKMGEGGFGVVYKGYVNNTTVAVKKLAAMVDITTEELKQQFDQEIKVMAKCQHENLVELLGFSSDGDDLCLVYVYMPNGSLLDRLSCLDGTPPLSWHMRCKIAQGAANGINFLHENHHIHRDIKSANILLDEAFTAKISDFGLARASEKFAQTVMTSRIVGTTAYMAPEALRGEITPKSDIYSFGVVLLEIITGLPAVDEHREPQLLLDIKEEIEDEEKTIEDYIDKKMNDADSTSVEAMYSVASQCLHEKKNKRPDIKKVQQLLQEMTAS
# Test: IRAK4 kinase activity assay, IMAP fluorescence polarization, phosphorylation of fluorescently labeled peptide
# Assay type: biochemical
# Conditions: 0.5 nM GST tagged IRAK4, 100 nM peptide substrate, 100 μM ATP, 30 minutes at 25° C.
# Method: The kinase activity of IRAK4 is measured by its ability to phosphorylate a fluorescently labeled synthetic peptide in the presence of ATP. The assay format is based on the Immobilized Metal Ion Affinity-Based Fluorescence Polarization (IMAP) platform developed by Molecular Devices. Briefly, reaction mixture (20 μL) contains the assay buffer (20 mM Tris.Cl, pH 7.2, 1 mM MgCl2, 1 mM DTT, and 0.02% Tween 20), 0.5 nM GST tagged IRAK4 (SignalChem), 100 nM peptide substrate and 100 μM ATP. The amino acid sequence of the peptide substrate is 5FAM-RKRQGSVRRRVH-COOH (Cat #: RP7030, Molecular Devices). The reaction is initiated by adding substrates ATP and RP7030, and terminated by adding Stop solution (60 μL) after 30 minutes of incubation at 25° C. The Stop solution is prepared with IMAP Progressive Reagent A/B and Binding reagent according to vender's instruction. The extent of phosphorylation of the peptide is measured by changes in Fluorescence Polarization (FP) resulting from binding of phosphate group on the peptide with immobilized metal coordination complexes on the nanoparticles included in the Stop solution. Errors in the calculated IRAK4 IC50 values range from 4-12% from duplicate experiments.
row,pIC50,Compound
1,> 6.30,"COc1cc2c(N3CCC[C@H](N)C3)nccc2cc1C(N)=O [Compound XX, (S)-1-(3-aminopiperidin-1-yl)-7-methoxyisoquinoline-6-carboxamide]"
2,5.52 to 6.30,"COc1cc2c(N3CCC[C@H](O)C3)nccc2cc1C(N)=O [Compound XXI, (S)-1-(3-hydroxypiperidin-1-yl)-7-methoxyisoquinoline-6-carboxamide]"
3,> 6.30,"CC#Cc1cnc(NC[C@@H]2CCC(=O)N2)c2cc(OC)c(C(N)=O)cc12 [Compound XXII, (S)-7-methoxy-1-(((5-oxopyrrolidin-2-yl)methyl)amino)-4-(prop-1-yn-1-yl) isoquinoline-6-carboxamide]"
4,5.52 to 6.30,"COc1cc2c(N[C@@H]3CCCNC3)nccc2cc1C(N)=O [Compound XXIX, (R)-7-methoxy-1-(piperidin-3-ylamino) isoquinoline-6-carboxamide]"
5,5.52 to 6.30,"COc1cc2c(N3CCC(C)(CN)CC3)nccc2cc1C(N)=O [Compound XXVI, 1-(4-(aminomethyl)-4-methylpiperidin-1-yl)-7-methoxyisoquinoline-6-carboxamide]"
6,5.52 to 6.30,"COc1cc2c(N3CCC(N)CC3)nccc2cc1C(N)=O [Compound XXVII, 1-(4-aminopiperidin-1-yl)-7-methoxyisoquinoline-6-carboxamide]"
7,5.00 to 5.52,"COc1cc2c(N[C@@H]3CCCN(C(=O)CC#N)C3)nccc2cc1C(N)=O [Compound XXX, (R)-1-((1-(2-cyanoacetyl)piperidin-3-yl)amino)-7-methoxyisoquinoline-6-carboxamide]"
8,5.00 to 5.52,"COc1cc2c(S[C@@H]3CCCN(C(=O)CC#N)C3)nccc2cc1C(N)=O [Compound XXXI, (R)-1-((1-(2-cyanoacetyl)piperidin-3-yl)thio)-7-methoxyisoquinoline-6-carboxamide]"
9,5.52 to 6.30,"COc1cc2c(N[C@@H]3CCNC3)nccc2cc1C(N)=O [Compound XXXII, (R)-7-methoxy-1-(pyrrolidin-3-ylamino)isoquinoline-6-carboxamide]"
10,5.52 to 6.30,"COc1cc2c(ccn2[C@H]2CC[C@H](N)C2)cc1C(N)=O [XXIII, 1-((1S, 3S) 3-aminocyclopentyl)-6-methoxy-1H-indole-5-carboxamide]"
11,> 6.30,"CC#Cc1cnc(N2CCC[C@H](N)C2)c2cc(OC)c(C(N)=O)cc12 [XXXIV, (S)-1-(3-aminopiperidin-1-yl)-7-methoxy-4-(prop-1-yn-1-yl)soquinoline-6-carboxamide]"
12,5.52 to 6.30,"COc1cc2c(N3CCC[C@H](N)C3)ncc(Br)c2cc1C(N)=O [XXXV, (S)-1-(3-aminopiperidin-1-yl)-4-bromo-7-methoxyisoquinoline-6-carboxamide]"
13,5.52 to 6.30,"COc1cc2c(N3CCC[C@H](N)C3)ncc(C#N)c2cc1C(N)=O [XXXVI, (S)-1-(3-aminopiperidin-1-yl)-4-cyano-7-methoxyisoquinoline-6-carboxamide]"

# Second part, the molecule before the results:
row,Compound,pIC50
1,"NC(=O)c1cc2ccnc3c2cc1OCCOCCN1C(=O)CCC1CO3 (centres unmarked) [Compound IX, 4^5-oxo-2,7,10-trioxa-1(1,7)-isoquinolina-4(2,1)-pyrrolidinacyclodecaphane-1^6-carboxamide]",5.00 to 5.52
2,"COc1cc2c(OC[C@@H]3CCC(=O)N3)nccc2cc1C(N)=S [Compound XI, (S)-7-methoxy-1-((5-oxopyrrolidin-2-yl)methoxy)isoquinoline-6-carbothioamide]",5.52 to 6.30
3,"NC(=O)c1cc2ccnc3c2cc1OCCOCC(=O)N1CC(CO3)C1 [Compound XIV, 5-oxo-2,7,10-trioxa-1(1,7)-isoquinolina-4(3,1)-azetidinacyclodecaphane-16-carboxamide]",5.52 to 6.30
4,"CCC[C@@H]1CC(=O)N2COCCOc3cc4c(nccc4cc3C(N)=O)OC[C@H]12 [Compound XXIV, (4^2S,4^3R)-4^5-oxo-4^3-propyl-2,6,9-trioxa-1 (1,7)-isoquinolina-4 (2,1)-pyrrolidinacyclononaphane-1^6-carboxamide]",5.52 to 6.30
5,"C[C@@H]1CC(=O)N2COCCOc3cc4c(nccc4cc3C(N)=O)OC[C@H]12 [Compound XXV, (4^2S, 4^3R)-4^3-methyl-4^5-oxo-2,6,9-trioxa-1 (1,7)-isoquinolina-4 (2,1)-pyrrolidinacyclononaphane-1^6-carboxamide]",> 6.30
6,"CC[C@@H]1CC(=O)N[C@@H]1CNc1nccc2cc(C(N)=O)c(OC)cc12 [Compound XXVIII, 1-((((2S, 3R)-3-ethyl-5-oxopyrrolidin-2-yl)methyl)amino)-7-methoxyisoquinoline-6-carboxamide]",> 6.30
7,"COc1cc2c(OCC3CCC(=O)N3)nccc2cc1OC(N)=O (centres unmarked) [II, 7-methoxy-1-((5-oxopyrrolidin-2-yl)methoxy)isoquinolin-6-yl carbamate]",5.00 to 5.52
8,"COc1cc2c(OCC3CCC(=O)N3)nccc2cc1C(=O)NO (centres unmarked) [IV, N-hydroxy-7-methoxy-1-((5-oxopyrrolidin-2-yl)methoxy) isoquinoline-6-carboxamide]",5.00 to 5.52
9,"COc1cc2c(NCC3CCC(=O)N3)nccc2cc1C(N)=O (centres unmarked) [VII, 7-methoxy-1-(((5-oxopyrrolidin-2-yl)methyl)amino) isoquinoline-6-carboxamide]",5.52 to 6.30
10,"COc1cc2c(OC[C@@H]3CCC(=O)N3)nccc2cc1C(=O)S [XIII, (S)-7-methoxy-1-((5-oxopyrrolidin-2-yl)methoxy) isoquinoline-6-carbothioic S-acid]",5.52 to 6.30
11,"CC[C@@H]1CC(=O)N2COCCOc3cc4c(nccc4cc3C(N)=O)OC[C@H]12 [XIX, (4^2S, 4^3R)-4^3-ethyl-4^5-oxo-2,6,9-trioxa-1 (1,7)-isoquinolina-4 (2,1)-pyrrolidinacyclononaphane-1^6-carboxamide]",5.52 to 6.30
12,"NC(=O)c1cc2ccnc3c2cc1OCCOCN1C(=O)OCC1CO3 (centres unmarked) [XVII, 1^2-oxo-3,5,8-trioxa-1(4,3)-oxazolidina-4(1,7)-isoquinolinacyclononaphane-4^6-carboxamide]",5.52 to 6.30
13,"NC(=O)c1cc2ccnc3c2cc1OCCOCN1C(=O)CC[C@H]1CO3 [XVIII, (S)-4^5-oxo-2,6,9-trioxa-1(1,7)-isoquinolina-4(2,1)-pyrrolidinacyclononaphane-1^6-carboxamide]",> 6.30
